Measured values published in ChEMBL document CHEMBL2176906, “Diterpenoids isolated from Sideritis species protect astrocytes against oxidative stress via Nrf2” (J Nat Prod, 2012).
Active and inactive are the calls of the source. The calls are words filed in the database; no cut-off is given here.

Test system: U373 MG
Assay: Inhibition of AAPH-induced oxidative stress in human U373MG cells assessed as peroxy radical scavenging activity at 8 uM by ORAC assay
Format: functional, cell-based
Conditions: U-373MG ATCC

Cc1c(C)c2c(c(C)c1O)CCC(C)(C(=O)O)O2 (stereo unspecified)
Activity: Active
